tested on: Human primary T cells; assay: IL-2 ELISA, human primary T cell, anti-CD3+CD28+ (whole cell assay); format: cell-based; conditions: Homo sapiens, T-cell, 24 h, human primary T cells stimulated with anti-CD3 + anti-CD28, 24 hours
Method in brief: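 IL-2 secreted over 24 h at 37° C was quantified by ELISA after plate-bound αCD3 (1 μg/ml) and αCD28 (5 μg/ml) stimulation, or PMA (0.5 ng/ml) with ionomycin (0.1 μM) as counter-screen. Cells were IL-2-starved primary human T cells, expanded from volunteer PBMC and exposed to compound for 1 hr beforehand.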

| Compound | IC50 |
| --- | --- |
| CC1(C)CC(Nc2nc(Nc3ccc(OCCN4CCCC4=O)c(C(F)(F)F)c3)ncc2F)CC(C)(C)N1 [Compound I-57, 1-(2-(4-(4-(2,2,6,6-tetramethylpiperidin-4-ylamino)-5-fluoropyrimidin-2-ylamino)-2-(trifluoromethyl)phenoxy)ethyl)pyrrolidin-2-one] | > 1000 nM |
| CC1(C)CC(Nc2nc(Nc3cccc(-n4cncn4)c3)ncc2F)CC(C)(C)N1 [Compound I-19, N2-(3-(1H-1,2,4-triazol-1-yl)phenyl)-5-fluoro-N4-(2,2,6,6-tetramethylpiperidin-4-yl)pyrimidine-2,4-diamine] | 500 to 1000 nM |
| CN1C(C)(C)CC(Nc2nc(Nc3cc(F)cc(OCCCn4cccc4)c3)ncc2F)CC1(C)C [Compound I-36, N2-(3-(3-(1H-pyrrol-1-yl)propoxy)-5-fluorophenyl)-5-fluoro-N4-(1,2,2,6,6-pentamethylpiperidin-4-yl)pyrimidine-2,4-diamine] | 500 to 1000 nM |
| CN1C(C)(C)CC(Nc2nc(Nc3ccc(OCCn4ccnn4)c(OC(F)F)c3)ncc2F)CC1(C)C [Compound I-26, N2-(4-(2-(1H-1,2,3-triazol-1-yl)ethoxy)-3-(difluoromethoxy)phenyl)-5-fluoro-N4-(1,2,2,6,6-pentamethylpiperidin-4-yl)pyrimidine-2,4-diamine] | 250 to 500 nM |
| Cc1ccn(-c2cccc(Nc3ncc(F)c(NC4CC(C)(C)N(C)C(C)(C)C4)n3)c2)n1 [Compound I-1, 5-fluoro-N2-(3-(3-methyl-1H-pyrazol-1-yl)phenyl)-N4-(1,2,2,6,6-pentamethylpiperidin-4-yl)pyrimidine-2,4-diamine] | > 1000 nM |
| CN1C(C)(C)CC(Nc2nc(Nc3cc(OCCn4ccnn4)cc(C(F)(F)F)c3)ncc2F)CC1(C)C [Compound I-33, N2-(3-(2-(1H-1,2,3-triazol-1-yl)ethoxy)-5-(trifluoromethyl)phenyl)-5-fluoro-N4-(1,2,2,6,6-pentamethylpiperidin-4-yl)pyrimidine-2,4-diamine] | 250 to 500 nM |
| CC1(C)CC(Nc2nc(Nc3cccc(-n4cccn4)c3)ncc2F)CC(C)(C)N1 [Compound I-23, N2-(3-(1H-pyrazol-1-yl)phenyl)-5-fluoro-N4-(2,2,6,6-tetramethylpiperidin-4-yl)pyrimidine-2,4-diamine] | > 1000 nM |
| CC1(C)CC(Nc2nc(Nc3ccc(-c4cccnc4)c(OC(F)F)c3)ncc2F)CC(C)(C)N1 [Compound I-63, N2-(3-(difluoromethoxy)-4-(pyridin-3-yl)phenyl)-5-fluoro-N4-(2,2,6,6-tetramethylpiperidin-4-yl)pyrimidine-2,4-diamine] | 250 to 500 nM |
| CN1C(C)(C)CC(Nc2nc(Nc3ccc(OCCn4cncn4)c(OC(F)F)c3)ncc2F)CC1(C)C [Compound I-27, N2-(4-(2-(1H-1,2,4-triazol-1-yl)ethoxy)-3-(difluoromethoxy)phenyl)-5-fluoro-N4-(1,2,2,6,6-pentamethylpiperidin-4-yl)pyrimidine-2,4-diamine] | < 250 nM |
| CN1C(C)(C)CC(Nc2nc(Nc3cc(F)cc(OCCn4ccnn4)c3)ncc2F)CC1(C)C [Compound I-6, N2-(3-(2-(1H-1,2,3-triazol-1-yl)ethoxy)-5-fluorophenyl)-5-fluoro-N4-(1,2,2,6,6-pentamethylpiperidin-4-yl)pyrimidine-2,4-diamine] | 500 to 1000 nM |
| CN1C(C)(C)CC(Nc2nc(Nc3ccc(OCCN4CCCC4=O)c(C(F)(F)F)c3)ncc2F)CC1(C)C [Compound I-56, 1-(2-(4-(4-(1,2,2,6,6-pentamethylpiperidin-4-ylamino)-5-fluoropyrimidin-2-ylamino)-2-(trifluoromethyl)phenoxy)ethyl)pyrrolidin-2-one] | 500 to 1000 nM |
| CN1C(C)(C)CC(Nc2nc(Nc3ccc(Oc4ccncc4)c(OC(F)F)c3)ncc2C#N)CC1(C)C [Compound I-53, 4-(1,2,2,6,6-pentamethylpiperidin-4-ylamino)-2-(3-(difluoromethoxy)-4-(pyridin-4-yloxy)phenylamino)pyrimidine-5-carbonitrile] | > 1000 nM |

Second part, the molecule after the results:

| IC50 | Compound |
| --- | --- |
| < 250 nM | CC(C)N1CCC(Oc2ccc(Nc3ncc(F)c(NC4CC(C)(C)N(C)C(C)(C)C4)n3)cc2F)CC1 [III-18, 5-fluoro-N2-(3-fluoro-4-(1-isopropylpiperidin-4-yloxy)phenyl)-N4-(1,2,2,6,6-pentamethylpiperidin-4-yl)pyrimidine-2,4-diamine] |
| 250 to 500 nM | CN1C(C)(C)CC(Nc2nc(Nc3ccc(OC4CCN(CC(N)=O)CC4)c(OC(F)F)c3)ncc2F)CC1(C)C [III-35, 2-(4-(2-(Difluoromethoxy)-4-(5-fluoro-4-(1,2,2,6,6-pentamethylpiperidin-4-ylamino)pyrimidin-2-ylamino)phenoxy)piperidin-1-yl)acetamide] |
| < 250 nM | CN1C(C)(C)CC(Nc2nc(Nc3ccc(OC4CCN(CCF)CC4)c(Cl)c3)ncc2F)CC1(C)C [III-97, N2-(3-chloro-4-(1-(2-fluoroethyl)piperidin-4-yloxy)phenyl)-5-fluoro-N4-(1,2,2,6,6-pentamethylpiperidin-4-yl)pyrimidine-2,4-diamine] |
| > 1000 nM | CCNC(=O)N1CCCC(Oc2ccc(Nc3ncc(F)c(NC4CC(C)(C)NC(C)(C)C4)n3)cc2OC(F)F)CC1 (centres unmarked) [III-88, 4-(2-(difluoromethoxy)-4-(5-fluoro-4-(2,2,6,6-tetramethylpiperidin-4-ylamino)pyrimidin-2-ylamino)phenoxy)-N-ethylazepane-1-carboxamide] |
| < 250 nM | CC(C)Oc1ccc(Nc2ncc(F)c(NC3CC(C)(C)N(C)C(C)(C)C3)n2)cc1-c1nnnn1C [III-123, 5-fluoro-N2-(4-isopropoxy-3-(1-methyl-1H-tetrazol-5-yl)phenyl)-N4-(1,2,2,6,6-pentamethylpiperidin-4-yl)pyrimidine-2,4-diamine] |
| > 1000 nM | CN1C(C)(C)CC(Nc2nc(Nc3ccc(OC4CCS(=O)(=O)CC4)c(F)c3)ncc2F)CC1(C)C [III-29, N2-[4-(1,1-Dioxo-hexahydro-1λ6-thiopyran-4-yloxy)-3-fluoro-phenyl]-5-fluoro-N4-(1,2,2,6,6-pentamethyl-piperidin-4-yl)-pyrimidine-2,4-diamine] |
| > 1000 nM | CC1(C)CC(Nc2nc(Nc3ccc4c(c3)OCC(C(=O)N3CCCCC3)O4)ncc2F)CC(C)(C)N1 (centres unmarked) [II-3, (6-(4-(2,2,6,6-tetramethylpiperidin-4-ylamino)-5-fluoropyrimidin-2-ylamino)-2,3-dihydrobenzo[b][1,4]dioxin-2-yl)(piperidin-1-yl)methanone] |
| 250 to 500 nM | CN1C(C)(C)CC(Nc2nc(Nc3ccc(OC4CCCN(S(C)(=O)=O)CC4)c(OC(F)F)c3)ncc2F)CC1(C)C (centres unmarked) [III-89, N2-(3-(difluoromethoxy)-4-(1-(methylsulfonyl)azepan-4-yloxy)phenyl)-5-fluoro-N4-(1,2,2,6,6-pentamethylpiperidin-4-yl)pyrimidine-2,4-diamine] |
| 500 to 1000 nM | CN1C(C)(C)CC(Nc2nc(Nc3ccc(OC4CCN(CCOCc5ccccc5)CC4)c(F)c3)ncc2F)CC1(C)C [III-54, N2-(4-(1-(2-(benzyloxy)ethyl)piperidin-4-yloxy)-3-fluorophenyl)-5-fluoro-N4-(1,2,2,6,6-pentamethylpiperidin-4-yl)pyrimidine-2,4-diamine] |
| 250 to 500 nM | CC1(C)CC(Nc2nc(Nc3ccc(O[C@H]4CCOC4)c(OC(F)F)c3)ncc2F)CC(C)(C)N1 [III-100, (S)—N2-(3-(difluoromethoxy)-4-(tetrahydrofuran-3-yloxy)phenyl)-5-fluoro-N4-(2,2,6,6-tetramethylpiperidin-4-yl)pyrimidine-2,4-diamine] |
| < 250 nM | Cn1nnnc1-c1cc(Nc2ncc(F)c(NC3CC(C)(C)NC(C)(C)C3)n2)cc(C(F)(F)F)c1 [III-140, 5-fluoro-N2-(3-(1-methyl-1H-tetrazol-5-yl)-5-(trifluoromethyl)phenyl)-N4-(2,2,6,6-tetramethylpiperidin-4-yl)pyrimidine-2,4-diamine] |
| > 1000 nM | CC(=O)N1CCCC(Oc2c(F)cc(Nc3ncc(F)c(NC4CC(C)(C)NC(C)(C)C4)n3)cc2F)CC1 (centres unmarked) [III-82, 1-(4-(2,6-difluoro-4-(5-fluoro-4-(2,2,6,6-tetramethylpiperidin-4-ylamino)pyrimidin-2-ylamino)phenoxy)azepan-1-yl)ethanone] |

same assay, conditions: human primary T cells stimulated with anti-CD3 + anti-CD28, 24 hours

| IC50 | Compound |
| --- | --- |
| > 1000 nM | CC1(C)CC(Nc2nc(Nc3cccc(-c4nnnn4CCF)c3)ncc2C#N)CC(C)(C)N1 [Compound I-97, 5-Cyano-N2-{3-[1-N-(2-fluoroethyl)-(tetrazol-5-yl)]}phenyl-N4-(2,2,6,6-tetramethylpiperidin-4-yl)-2,4-pyrimidinediamine] |
| > 1000 nM | CC1(C)CC(Nc2nc(Nc3ccc(F)c(-n4cnnn4)c3)ncc2C(N)=O)CC(C)(C)N1 [Compound I-67, 5-aminocarbonyl-N2-[4-fluoro-3-(1H-tetrazol-1-yl)]phenyl-N4-(2,2,6,6-tetramethylpiperidin-4-yl)-2,4-pyrimidinediamine] |
| > 1000 nM | CC1(C)CC(Nc2nc(Nc3cccc(-n4nnnc4SCC(F)(F)F)c3)ncc2C(N)=O)CC(C)(C)N1 [Compound I-72, 5-aminocarbonyl-N4-(2,2,6,6-tetramethylpiperidin-4-yl)-N2-{3-[5-(2,2,2-trifluoroethyl)thio]-1H-tetrazol-1-yl}phenyl-2,4-pyrimidinediamine] |
| > 1000 nM | CCc1nnnn1-c1cc(Nc2ncc(C#N)c(NC3CC(C)(C)NC(C)(C)C3)n2)ccc1OC(F)F [Compound I-84, 5-cyano-N2-[4-difluoromethoxy-3-(5-ethyl-1H-tetrazol-1-yl)]phenyl-N4-(2,2,6,6-tetramethylpiperidin-4-yl)-2,4-pyrimidinediamine] |
| 250 to 500 nM | CC1(C)CC(Nc2nc(Nc3cccc(-c4nnnn4C4CC4)c3)ncc2C#N)CC(C)(C)N1 [Compound I-95, 5-Cyano-N2-{3-[1-N-cyclopropyl-(tetrazol-5-yl)]}phenyl-N4-(2,2,6,6-tetramethylpiperidin-4-yl)-2,4-pyrimidinediamine] |

Source: patent publication US9149475B2, “Protein kinase C inhibitors and uses thereof” (Rigel Pharmaceuticals, Inc., priority 2009, dated 2015)
